According to US10744117B2, “PPARG modulators for the treatment of osteoporosis” (The Scripps Research Institute, priority 2014, dated 2020):
Entries after “also recorded” stand apart in the source; their conditions may differ.

How the values were obtained:
PPARG = test: Cell-based transactivation assay, 3xPPRE-luciferase reporter co-transfected with PPARG in COS-1 cells; conditions: PPRE-luciferase
DIO C57BL/6 mice = test: Bone and marrow fat study in diet induced obesity (DIO) C57BL/6 mice on HFD, 4 wks; format: in vivo, mouse; conditions: 25 mg/kg/d
Experimental: The compound IA-48 (SR10171) acts as an antagonist to PPARy pro-adipocytic activity, and it has been further tested in vivo for its effect on bone. SR10171 was administered to hyperglycemic C57BL/6 mice, 12 wks old males, that were purchased from the Jackson Laboratories (Bar Harbor, Me.). DIO mice: Animals were fed ad libitum for 11 wks high fat diet (HFD) providing 45 kcal % from fat (D12451; Research Diets, New Brunswick, N.J.) to develop diet induced obesity (DIO).
In parallel, a group of sex- and age-matched control (n=5) was fed regular diet (RD) providing 12 kcal % from fat (2016 Teklad Global, Harlan Laboratories, Indianapolis, Ind.). […]
Fat and lean mass were evaluated at the beginning and at the end of experiment using a Minispec mq10 NMR analyzer (Bruker, Billerica, Mass.). Glucose disposal (glucose tolerance test, GTT) was measured after ip injection of 2 g/kg glucose to animals fasted for 4 hrs. Blood glucose was measured using the AlphaTRAK system appropriate for mice (Abbott Laboratories, North Chicago, Ill.). For indirect calorimetry, mice were evaluated in metabolic cages (CLAMS; Columbus Instruments, Columbus, Ohio) for 4 days with a free access to food and water. […] After one day adaptation, oxygen (VO2) consumption, carbon dioxide (VCO2) production, physical activity, and heat production were measured to determine energy expenditure. […]

lean C57BL/6 mice = test: Bone study in lean C57BL/6 mice on regular diet, 8 weeks; format: in vivo, mouse; conditions: supplemented RD
Experimental: In parallel, a group of sex- and age-matched control (n=5) was fed regular diet (RD) providing 12 kcal % from fat (2016 Teklad Global, Harlan Laboratories, Indianapolis, Ind.). […] The animal treatment and care protocols conformed to the NIH Guidelines and were performed under the University of Toledo Health Science Campus Institutional Animal Care and Utilization Committee protocol.
Fat and lean mass were evaluated at the beginning and at the end of experiment using a Minispec mq10 NMR analyzer (Bruker, Billerica, Mass.). Glucose disposal (glucose tolerance test, GTT) was measured after ip injection of 2 g/kg glucose to animals fasted for 4 hrs. Blood glucose was measured using the AlphaTRAK system appropriate for mice (Abbott Laboratories, North Chicago, Ill.). For indirect calorimetry, mice were evaluated in metabolic cages (CLAMS; Columbus Instruments, Columbus, Ohio) for 4 days with a free access to food and water. Mice were housed individually at room temperature (22C) under an alternating 12-h light/dark cycle. After one day adaptation, oxygen (VO2) consumption, carbon dioxide (VCO2) production, physical activity, and heat production were measured to determine energy expenditure. Respiratory exchange ratio was calculated as a ratio of […]. […]

[1] = system: obese mice fed a high fat diet; test: Glucose tolerance test in mice on RD or HFD (FIG. 7); format: in vivo, mouse; conditions: mice fasted, bolus of glucose, plasma glucose over time

## CN(CCOc1ccc(CC2SC(=O)NC2=O)cc1)c1ccccn1 (centres unmarked) [Rosiglitazone, rosiglitazone]
PPARG
  activation of the reporter: about 5 fold
DIO C57BL/6 mice
  decrease of trabecular bone mass: 70%
DIO C57BL/6 mice; trabecular region of tibia
  bone marrow fat content (osmium staining): significant fat accumulation in the bone marrow; also recorded: significantly increased fat content in the bone marrow
Lean C57BL/6 mice
  loss of trabecular bone mass: 30%
[1]
  glucose tolerance / glucose disposal: insulin sensitization effects and improved glucose disposal
